From patent US20180160679A1, “PROCESS FOR TREATING PERENNIAL PLANT WOOD DISEASES” (priority 2015, published 2018)

Tests used:
[1] = system: Phaeoacremonium aleophilum (LR 23); assay: Germination of the spores on malt-agar medium with fungicide; assay type: cell-based; settings: for inhibition of germination of the spores: at the concentrations tested (0.0005 to 500 mg/L)
Protocol: (§1) Formulation 3 was used in this experiment and was compared with two formulations 5 and 6, devoid of one of the two active ingredients but of identical composition (the quantity of active ingredient omitted is replaced with water).
(§2) The fungi on which formulations 3, 5 and 6 were tested are Phaemoniella chlamydospora (81pep), Phaeoacremonium aleophilum (LR 23), Diplodia seriata (F98-01), Neofusicoccum parvum (NpSV) and Eutypa lata.
(§3) The fungi are transferred to a malt-agar medium (15 g of malt and 20 g of agar per litre of deionized water, sterilized at 120° C. for 20 minutes) in a Petri dish for multiplication.
(§4) The conidia of Phaemoniella chlamydospora and Phaeoacremonium aleophilum are obtained from cultures of these fungi. The conidia are obtained by rinsing the colony of fungi with a few millilitres of sterile deionized water.
(§5) The suspension of conidia in deionized water is then adjusted to 100-200 conidia per μl.
(§6) The culture medium is a malt-agar medium (15 g of malt and 20 g of agar per litre of deionized water, sterilized at 120° C. for 20 minutes).
(§7) The medium containing the fungicides is prepared by diluting the formulation under investigation in deionized water, which is added to the culture medium. The mixture is then homogenized and distributed in Petri dishes with a diameter of 90 mm.
(§8) The final concentrations of each active ingredient in the medium are as follows: 0.0005, 0.005, 0.05, 0.5, 5, 50 and 500 mg/L.
(§9) 100 μl of a previously homogenized suspension of spores is deposited and spread over the surface of the culture medium.
(§10) Two repetitions are carried out for each test.
(§11) The percentage germination of the spores is evaluated relative to a control placed under the same conditions.
(§12) Two Petri dishes are incubated at 25° C. for a time required for the spores of the control dish to have germinated between 90 and 100%.
(§13) For each Petri dish, 200 spores are counted and the percentage of spores germinated is calculated.
(§14) For each concentration of fungicide, the percentage efficacy of the active ingredient is determined by the following equation: […]

[2] = system: Phaemoniella chlamydospora (81pep); assay: as above; assay type: cell-based; settings: at 0.05 mg/1
Protocol: as §1, §2, §3, §4, §5, §6, §7, §8, §9, §10, §11, §12, §13, §14

[3] = system: Neofusicoccum parvum (NpSV); assay: as above; assay type: cell-based
Protocol: as §1, §2, §3
The conidia of Neofusicoccum parvum are obtained from pycnidia that have developed on fragments of grapevines shoots.
as §6
The medium containing the fungicides is prepared by diluting the formulation under investigation in deionized water, which is added to the culture medium. […]
(§15) The percentage germination of the spores is evaluated relative to a control placed under the same conditions. […]
as §13, §14

Phytophthora cactorum = assay: Growth inhibition by laser nephelometry in 96-well microplates; assay type: cell-based; settings: nephelometry for 60 h
Protocol: (§16) For multicellular organisms such as fungi, the nephelometry method is used on sporulating strains (Joubert et al., Laser nephelometry applied in an automated microplate system to study filamentous fungus growth, Biotechniques 48: 399-404, 2010).
(§17) The strains are multiplied on suitable agar media in an oven at 20° C., for 8 days before their use, so as to be in their exponential growth phase. The fungal suspension is prepared extemporaneously at a concentration of […] for Pc and […] for Ch.
(§18) 100 μl of the suspension is used for the tests.
(§19) The tests are carried out in 96-well microplates. Doses of 0 ppm, 0.1 ppm, 0.3 ppm, 1 ppm, 3 ppm, 10 ppm, 30 ppm, 100 ppm, 300 ppm, 1000 ppm and 3000 ppm (final concentration of the substance) will be tested per product.
(§20) Three technical repetitions are carried out per modality (target species/formulation).
(§21) Controls are added per target pathogenic agent: one positive growth control and the products alone at the highest doses.
(§22) Nephelometry measurements (RNU) are carried out for 60 h, every 30 minutes and the growth values are measured to study the growth inhibition effect relative to the fungal controls.

[4] = system: Neonectria galligena (Cylindrocarpon heteronema); assay: as above; assay type: cell-based; settings: for IC50 / IC90: growth, nephelometry for 60 h
Protocol: as §16, §17, §18, §19, §20, §21, §22

[5] = system: Phaeomoniella chlamydospora; assay: Mycelial growth on malt-agar medium with fungicide (Example 6); assay type: cell-based
Protocol: as §6, §7
(§23) Discs with a diameter of 6 mm, cut out with a punch, are placed in each dish in sterile conditions. Three repetitions are carried out for each test. The Petri dishes are incubated at 25° C. for a time necessary for the fungus to develop as far as 1 or 2 cm from the edges of a Petri dish.
(§24) The percentage mycelial growth is evaluated relative to a control placed under the same conditions for each concentration of fungicide, by the following equation: […]
(§25) The value of the concentration of the active ingredients required for inhibiting mycelial growth at 50% (IC50) or at 90% (IC90) is calculated from the regression straight line of the percentage efficacy as a function of the logarithm of the concentration of the fungicide.
(§26) The value of the concentration of the fungicide that is lethal for the fungus is obtained according to the following methodology; the mycelial implants that have not developed on the culture medium with fungicide are transferred to a malt-agar culture medium, without fungicide. The Petri dishes are then incubated at ambient temperature. Failure of the mycelial implant to take is noted. […]
(§27) The efficacy of tetraconazole, cyproconazole alone or in combination with chlorothalonil or metiram zinc on mycelial growth was evaluated under the same conditions as in Example 4.
(§28) The efficacy of tebuconazole in combination with another […] antifungal, metiram zinc, was also evaluated.

[6] = system: Phaeocremonium aleophilum; assay: as above; assay type: cell-based
Protocol: as §6, §7, §23, §24, §25, §26, §27, §28

Eutypa lata = assay: Germination of the spores on malt-agar medium with fungicide; assay type: cell-based
Protocol: as §1, §2, §3
The ascospores of Eutypa lata are obtained from perithecia situated on vine plants that have died from Eutypiosis. The perithecia are decapitated superficially, isolated one by one and soaked in sterile water for approximately 2 hours. The concentration of ascospores is then adjusted to 100-200 conidia per μl.
(§29) The culture medium is a malt-agar medium (15 g of malt and 20 g of agar per litre of deionized water, sterilized at 120° C. for 20 minutes). […]
as §15, §13, §14

[7] = system: Formitiporia mediterranea (F2010-1); assay: Mycelial growth on malt-agar medium with fungicide; assay type: cell-based, Fomitoporia mediterranea; settings: for fungicide (lethal) activity: at the concentrations tested; for concentration at which mycelial growth is inhibited completely: Example 6
Protocol: (§30) Formulation 3 was used in this experiment and was compared with two formulations 5 and 6, is devoid of one of the two active ingredients but of identical composition (the quantity of active ingredient omitted is replaced with water).
(§31) The fungi on which formulations 3, 5 and 6 were tested are Diplodia seriata (F98-01), Neofusicoccum parvum (NpSV), Eutypa lata (St309) and Formitiporia mediterranea (F2010-1).
as §6, §7, §8, §23, §24, §25
(§32) The value of the concentration of the fungicide that is lethal for the fungus is obtained according to the following methodology; the mycelial implants that have not developed on the culture medium with fungicide are transferred to a malt-agar culture medium, without fungicide. The Petri dishes are then incubated at ambient temperature. Failure of the mycelial implant to take is noted.
(§33) The interactions between the fungicides in composition 3 are investigated by Wadley's method. IC50 and IC90 can be determined for each fungicide and for the fungicide combination from the curves plotted for each active ingredient used alone or for the combination.
(§34) IC90 and the theoretical IC90 for the combination is then calculated using the following equation:
(§35) The type and the level of the interaction F are then calculated by dividing the theoretical IC value by the experimental IC observed for the combination of fungicides (F=theoretical IC/experimental IC).
(§36) The interactions are defined thus: • Additivity: F=1, • Synergy: F>1, • Antagonism: F<1.
as §27, §28

[8] = system: Neofusicoccum parvum (NpSV); assay: Mycelial growth on malt-agar medium with fungicide; assay type: cell-based; settings: for concentration at which mycelial growth is inhibited completely / activity on mycelial growth: Example 6
Protocol: as §30, §31, §6, §7, §8, §23, §24, §25, §32, §33, §34, §35, §36, §27, §28

Eutypa lata (St309) = assay: Mycelial growth on malt-agar medium with fungicide; assay type: cell-based
Protocol: as §30, §31, §6, §7, §8, §23, §24, §25, §32, §33, §34, §35, §36, §27, §28

[9] = system: Diplodia seriata (F98-01); assay: Mycelial growth on malt-agar medium with fungicide; assay type: cell-based; settings: for activity on mycelial growth / concentration at which mycelial growth is inhibited completely: Example 6
Protocol: as §30, §31, §6, §7, §8, §23, §24, §25, §32, §33, §34, §35, §36, §27, §28

[10] = system: Diplodia seriata (F98-01); assay: Germination of the spores on malt-agar medium with fungicide; assay type: cell-based; settings: at the concentrations tested (0.0005 to 500 mg/L)
Protocol: as §1, §2, §3
The conidia of Diplodia seriata are obtained from pycnidia that have developed in less than three weeks of culture on the malt-agar medium. The pycnidia are taken from and cultured in sterile water in such a way that they release the conidia.
as §29, §15, §13, §14

[11] = Example 5, at the concentrations tested

Row | Compound | inhibition of germination of the spores [1] | inhibition of germination of the spores [2] | 50% inhibitory concentration (IC50) (Phytophthora cactorum) | 90% inhibitory concentration (IC90) (Phytophthora cactorum) [ppm] | lethal dose [4] [ppm] | IC50 [4] | IC90 [4] | concentration at which mycelial growth is inhibited completely [5] [mg/L] | concentration at which the substance is fungicidal [5] [mg/L] | concentration at which mycelial growth is inhibited completely [6] [mg/L] | concentration at which the substance is fungicidal (lethal dose) [6] [mg/L] | concentration that inhibits germination of the spores (Eutypa lata) [mg/1] | fungicide (lethal) activity [7] | concentration at which mycelial growth is inhibited completely [7] [mg/L] | concentration at which mycelial growth is inhibited completely [8] [mg/L] | concentration from which mycelial growth is inhibited completely (Eutypa lata (St309); Example 6) [mg/L] | lethal dose (Eutypa lata (St309); Example 6) [mg/L] | activity on mycelial growth [9] | activity on mycelial growth [8] | activity on mycelial growth (Eutypa lata (St309); Example 6) | also measured
1 | CC(C)(C)C(O)(CCc1ccc(Cl)cc1)Cn1cncn1 (centres unmarked) [tebuconazole] | does not prevent germination of the spores | inhibit germination of the spores completely | around 200 ppm | < 1000 | 1000 | around 230 ppm | around 800 ppm | 50 | 100 | 50 | 100 | 50 | None of the concentrations tested is lethal |  |  |  |  |  |  |  | concentration from which elongation of the spores is inhibited [1]: ≥ 5 mg/L; inhibition of germination of the spores ([3]; at the concentration tested): does not inhibit germination of the spores; concentration from which mycelial growth is inhibited completely ([7]; Example 5): ≥ 0.5 mg/L; IC50 ([7]; Example 5, mycelial growth, unit not given (concentrations tested in mg/L)): 3 ng/mL; concentration from which mycelial growth is inhibited completely ([8]; Example 5): ≥ 0.5 mg/L; lethal concentration ([8]; Example 5): 500 mg/L; IC50 ([8]; Neofusicoccum parvum, Example 5, mycelial growth, unit not given (concentrations tested in mg/L)): 0.013 µg/mL; concentration from which mycelial growth is inhibited completely (Eutypa lata (St309); Example 5): ≥ 0.5 mg/L; lethal concentration (Eutypa lata (St309); Example 5, implants transferred to medium without fungicide): 500 mg/L; IC50 ([9]; Diplodia seriata, Example 5, mycelial growth, unit not given (concentrations tested in mg/L)): 6 ng/mL; concentration from which mycelial growth is inhibited completely ([9]; Example 5): ≥ 50 mg/L; lethal concentration ([9]; Example 5): 500 mg/L
2 | CC(C1CC1)C(O)(Cn1cncn1)c1ccc(Cl)cc1 (centres unmarked) [cyproconazole] |  |  |  |  |  |  |  | 50 | 100 | 50 | 100 |  | fungicidal | 500 | 500 | ≥ 1 | 10 | low activity |  |  | 
3 | N#Cc1c(Cl)c(Cl)c(Cl)c(C#N)c1Cl [chlorothalonil] | does not inhibit germination of the spores | does not inhibit germination of the spores | below 10 ppm | 1000 | ≥ 300 | approximately 100 ppm | around 250 ppm | 500 |  | 500 |  | 5 | does not display fungicide activity |  |  |  |  | low activity | moderate activity | do not inhibit the mycelial growth of Eutypa lata completely | concentration from which germination of the spores is inhibited [3]: ≥ 5 mg/L; concentration from which mycelial development is strongly inhibited ([7]; Example 5): ≥ 5 mg/L; inhibition of germination of the spores [10]: does not inhibit germination of the spores; concentration at which mycelial development is strongly inhibited ([8]; Example 5): 500 mg/L; fungicide (lethal) activity [8, 11]: does not display fungicide activity; concentration from which mycelial development is strongly inhibited (Eutypa lata (St309); Example 5): ≥ 50 mg/L; fungicide (lethal) activity (Eutypa lata (St309); Example 5, at the concentrations tested (0.0005 to 500 mg/L)): does not display fungicide activity; activity on mycelial growth (Eutypa lata (St309); Example 6, listed as Chlorothalonil): low activity; concentration from which mycelial development is strongly inhibited ([9]; Example 5): ≥ 500 mg/L; fungicide (lethal) activity [9, 11]: does not display fungicide activity
4 | FC(F)C(F)(F)OCC(Cn1cncn1)c1ccc(Cl)cc1Cl (centres unmarked) [tetraconazole] |  |  |  |  |  |  |  | 50 | 100 | 50 | 100 |  | fungicidal | 10 | 500 | ≥ 5 | 50 |  |  |  | concentration at which mycelial growth is inhibited completely [9]: 500 mg/L
5 | metiram zinc |  |  |  |  |  |  |  | 100 |  | 100 |  |  | fungicidal | 500 |  |  |  |  | moderate activity | low activity | activity on mycelial growth (Eutypa lata (St309); Example 6, listed as Metiram zinc): do not inhibit the mycelial growth of Eutypa lata completely; concentration at which mycelial growth is inhibited completely [9]: 500 mg/L
